The values that follow are results of earlier work, collected in patent US7601707B1, “Method for instantly relieving tissue inflammation” (priority 2003, dated 2009).

For data set [1] the following is noted: in vivo.
The conditions of data set [2]: dose at which some people begin to feel toxic systemic effects; not considered lethal.

Regarding `CCCNC(C)C(=O)Nc1c(C)csc1C(=O)OC` (stereo not drawn) [Articaine], the Half-life in data set [1] is 0.333 h. Besides, the “Max dose Mg/Kg” value in data set [2] is on record as 7.0 Mg/Kg.
As for `CCCCN1CCCCC1C(=O)Nc1c(C)cccc1C` (stereo not drawn) [Bupivicaine], the Half-life in data set [1] is 3.5 h. In addition, the “Max dose Mg/Kg” value in data set [2] was 1.3 Mg/Kg.
In the case of `C[C@@H]1C[C@H]2[C@@H]3CCC4=CC(=O)C=C[C@]4(C)[C@@]3(F)[C@@H](O)C[C@]2(C)[C@@]1(O)C(=O)CO` [Dexamethasone], the water solubility result was “very water-soluble”.
In the case of `CCCN(CC)C(CC)C(=O)Nc1c(C)cccc1C` (stereo not drawn) [Etidocaine], the Half-life in data set [1] was 2.58 h. Further, the “Max dose Mg/Kg” value in data set [2] is 8.0 Mg/Kg.
For `CCN(CC)CC(=O)Nc1c(C)cccc1C` [Lidocaine], the “Max dose Mg/Kg” value in data set [2] is 7.0 Mg/Kg.
`Cc1cccc(C)c1NC(=O)C1CCCCN1C` (stereo not drawn) [Mepivicaine 2%, Mepivicaine]: the Half-life in data set [1] is 1.92 h. Besides, in data set [2], the “Max dose Mg/Kg” value is given as 6.6 Mg/Kg.
For `CCCNC(C)C(=O)Nc1ccccc1C` (stereo not drawn) [Prilocaine], the Half-life in data set [1] was 1.5 h. Besides, the “Max dose Mg/Kg” value in data set [2] was 8.0 Mg/Kg.
